According to paper PMC2561905 (Biochemistry, 2008):
Read-outs that look alike come from different tables or passages of the source.

Tests used:
I48V [1] = conditions: read-out: Operator capture by LLhP and variants (× 10^-7 M hypoxanthine), lacO^sym; [co-repressor]mid; SD, n = 3
S61M [2] = conditions: read-out: Operator capture by LLhP and variants (× 10^-7 M hypoxanthine), lacO^disC; [co-repressor]mid; SD, n = 3
Q55T [3] = conditions: read-out: Operator capture by LLhP and variants (× 10^-7 M hypoxanthine), lacO^1; [co-repressor]mid; SD, n = 3
LLhP [4] = conditions: read-out: Operator capture by LLhP and variants (× 10^-7 M hypoxanthine), lacO^disC; [co-repressor]mid; SD, n = 3
Q55T [5] = conditions: read-out: Operator capture by LLhP and variants (× 10^-7 M hypoxanthine), lacO^disC; [co-repressor]mid; SD, n = 3
LLhP [6] = conditions: read-out: Operator capture by LLhP and variants (× 10^-7 M hypoxanthine), lacO^1; [co-repressor]mid; SD, n = 3
I48S [7] = conditions: read-out: Operator capture by LLhP and variants (× 10^-7 M hypoxanthine), lacO^disC; [co-repressor]mid; SD, n = 3
I48V [8] = conditions: read-out: Operator capture by LLhP and variants (× 10^-7 M hypoxanthine), lacO^disC; [co-repressor]mid; SD, n = 3
S61C [9] = conditions: read-out: Operator capture by LLhP and variants (× 10^-7 M hypoxanthine), lacO^disC; [co-repressor]mid; SD, n = 3
Q55V [10] = conditions: read-out: Operator capture by LLhP and variants (× 10^-7 M hypoxanthine), lacO^sym; [co-repressor]mid; SD, n = 3
Q55T [11] = conditions: read-out: Operator capture by LLhP and variants (× 10^-7 M hypoxanthine), lacO^sym; [co-repressor]mid; SD, n = 3
Q55V [12] = conditions: read-out: Operator capture by LLhP and variants (× 10^-7 M hypoxanthine), lacO^disC; [co-repressor]mid; SD, n = 3
S61C [13] = conditions: read-out: Operator capture by LLhP and variants (× 10^-7 M hypoxanthine), lacO^1; [co-repressor]mid; SD, n = 3
LLhP [14] = conditions: read-out: Operator capture by LLhP and variants (× 10^-7 M hypoxanthine), lacO^sym; [co-repressor]mid; SD, n = 3
I48S [15] = conditions: read-out: Operator capture by LLhP and variants (× 10^-7 M hypoxanthine), lacO^sym; [co-repressor]mid; SD, n = 3
S61M [16] = conditions: read-out: Operator capture by LLhP and variants (× 10^-7 M hypoxanthine), lacO^1; [co-repressor]mid; SD, n = 3
Q55V [17] = conditions: read-out: Operator capture by LLhP and variants (× 10^-7 M hypoxanthine), lacO^1; [co-repressor]mid; SD, n = 3
I48V [18] = conditions: read-out: Operator capture by LLhP and variants (× 10^-7 M hypoxanthine), lacO^1; [co-repressor]mid; SD, n = 3
I48S [19] = conditions: read-out: Operator capture by LLhP and variants (× 10^-7 M hypoxanthine), lacO^1; [co-repressor]mid; SD, n = 3
lacO^1 operator DNA = experiment: Operator capture experiment with lacO^1; assay type: binding, E. coli; conditions: curves super-imposable for three different operator sequences
lacO^disC operator DNA = experiment: Nitrocellulose filter binding, DNA-binding affinity for lacO^disC; conditions: LLhP+HX compared with LacI without inducer
lacO^sym operator DNA = conditions: LacI without inducer; cited from earlier work

**Q.** What does the source list for `O=c1[nH]cnc2[nH]cnc12` [hypoxanthine, hypoxanthine (HX)]?
**A.** EC50 (I48V [1]): 570 ± 50 nM; EC50 (S61M [2]): 11700 ± 1200 nM; EC50 (Q55T [3]): 1000 ± 80 nM; EC50 (LLhP [4]): 370 ± 80 nM; EC50 (Q55T [5]): 2100 ± 160 nM; EC50 (LLhP [6]): 410 ± 70 nM; EC50 (I48S [7]): 1600 ± 180 nM; EC50 (I48V [8]): 3300 ± 160 nM; EC50 (S61C [9]): 8000 ± 270 nM; EC50 (Q55V [10]): 850 ± 60 nM; EC50 (Q55T [11]): 430 ± 40 nM; EC50 (Q55V [12]): 2200 ± 80 nM; EC50 (S61C [13]): 4700 ± 410 nM; EC50 (LLhP [14]): 550 ± 230 nM; EC50 (I48S [15]): 670 ± 60 nM; EC50 (S61M [16]): 5900 ± 340 nM; EC50 (Q55V [17]): 1000 ± 130 nM; EC50 (I48V [18]): 880 ± 60 nM; EC50 (I48S [19]): 950 ± 70 nM

B1: LLhP: chimeric repressor: LacI DNA-binding domain, LacI linker and PurR regulatory domain; homodimer (protein)
chain: MKPVTLYDVAEYAGVSYQTVSRVVNQASHVSAKTREKVEAAMAELNYIPNRVAQQLAGKQSLLIGVATSSLALHAPSQIVAAIKSRADQLGASVVVSMVERSGVEACKAAVHNLLAQRVSGLIINYPLDDQDAIAVEAACTNVPALFLDVSDQTPINSIIFSHEDGTRLGVEHLVALGHQQIALLAGPLSSVSARLRLAGWHKYLTRNQIQPIAEREGDWSAMSGFQQTMQMLNEGIVPTAMLVANDQMALGAMRAITESGLRVGADISVVGYDDTEDSSCYIPPLTTIKQDFRLLGQTSVDRLLQLSQGQAVKGNQLLPVSLVKRKTTLAPNATIKDVAKRANVSTTTVSHVINKTRFVAEETRNAVWAAIKELHYSPSAVARSLKVNHTKSIGLLATSSEAAYFAEIIEAVEKNCFQKGYTLILGNAWNNLEKQRAYLSMMAQKRVDGLLVMCSEYPEPLLAMLEEYRHIPMVVMDWGEAKADFTDAVIDNAFEGGYMAGRYLIERGHREIGVIPGPLERNTGAGRLAGFMKAMEEAMIKVPESWIVQGDFEPESGYRAMQQILSQPHRPTAVFCGGDIMAMGALCAADEMGLRVPQDVSLIGYDNVRNARYFTPALTTIHQPKDSLGETAFNMLLDRIVNKREEPQSIEVHPRLIERRSVADGPFRDYRR
**Q.** Which Operator capture mid-point (lacO^1 operator DNA) does the source give for B1 here?
**A.** around 4.4 × 10 ^−7 M hypoxanthine

**Q.** What about the “Tighter binding of lacO^disC than LacI” value (lacO^disC operator DNA) of the same molecule?
**A.** ~30 fold

B2: LacI: lactose repressor protein, naturally-occurring LacI/GalR homologue used for comparison (protein, UniProt P03023 1-360, looked up)
Lactose operon repressor: MKPVTLYDVAEYAGVSYQTVSRVVNQASHVSAKTREKVEAAMAELNYIPNRVAQQLAGKQSLLIGVATSSLALHAPSQIVAAIKSRADQLGASVVVSMVERSGVEACKAAVHNLLAQRVSGLIINYPLDDQDAIAVEAACTNVPALFLDVSDQTPINSIIFSHEDGTRLGVEHLVALGHQQIALLAGPLSSVSARLRLAGWHKYLTRNQIQPIAEREGDWSAMSGFQQTMQMLNEGIVPTAMLVANDQMALGAMRAITESGLRVGADISVVGYDDTEDSSCYIPPLTTIKQDFRLLGQTSVDRLLQLSQGQAVKGNQLLPVSLVKRKTTLAPNTQTASPRALADSLMQLARQVSRLESGQ
**Q.** For B2, which “Tighter binding of lacO^sym than lacO^1” value (lacO^sym operator DNA) is on record?
**A.** ~10 fold
